Measured values from patent publication US7811760B2, “Vector and method for detecting the change in transcription amount” (priority 2006, dated 2010).

Legend:
[1] = target: T1, aryl hydrocarbon receptor (Rattus norvegicus, UniProt P41738, Q794H); experiment: Reporter gene assay in Neuro2a with pSV40E100/Luc and pTHE100/Luc (SEQ ID No: 3); format: cell-based, SD-line rat; settings: 10 nM TCDD; pTHE100/Luc compared with pSV40E100/Luc
T1 construct: The SD-line rat AhR gene-coding region was amplified from the reverse-transcribed sample by means of PCR; V5-His (C-terminal tag of vector pcDNA4/V5-His B); expressed in transfected cells; host or cells: mouse neuroblastoma Neuro2a, transient transfection with LIPOFECTAMINE 2000
T1 sequence (P41738 10-853 Q794H): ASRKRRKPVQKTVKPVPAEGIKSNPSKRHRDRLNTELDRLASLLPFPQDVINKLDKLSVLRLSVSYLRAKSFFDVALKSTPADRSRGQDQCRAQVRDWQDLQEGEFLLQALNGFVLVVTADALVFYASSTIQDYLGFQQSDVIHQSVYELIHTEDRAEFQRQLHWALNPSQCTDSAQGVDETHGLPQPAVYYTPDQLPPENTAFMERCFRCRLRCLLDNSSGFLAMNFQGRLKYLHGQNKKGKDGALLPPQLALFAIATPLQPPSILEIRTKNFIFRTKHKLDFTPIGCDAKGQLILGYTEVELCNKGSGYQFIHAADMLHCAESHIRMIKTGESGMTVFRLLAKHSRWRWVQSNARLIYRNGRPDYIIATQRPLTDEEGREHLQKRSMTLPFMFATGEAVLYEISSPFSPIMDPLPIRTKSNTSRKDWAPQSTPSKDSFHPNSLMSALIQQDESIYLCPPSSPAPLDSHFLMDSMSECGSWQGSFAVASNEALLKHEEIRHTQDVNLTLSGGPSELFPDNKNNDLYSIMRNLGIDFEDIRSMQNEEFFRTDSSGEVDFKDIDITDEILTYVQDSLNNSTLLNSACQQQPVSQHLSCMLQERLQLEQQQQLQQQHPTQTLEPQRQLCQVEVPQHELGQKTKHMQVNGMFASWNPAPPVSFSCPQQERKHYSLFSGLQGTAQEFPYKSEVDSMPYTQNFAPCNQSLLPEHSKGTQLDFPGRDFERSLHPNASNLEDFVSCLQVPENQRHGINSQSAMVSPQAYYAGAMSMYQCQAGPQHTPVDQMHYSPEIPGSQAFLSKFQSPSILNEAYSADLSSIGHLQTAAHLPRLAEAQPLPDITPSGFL
Experimental: The TH transcriptional regulatory region of SEQ ID No: 3 (−300 to −200 bp) was used in Example 6. The TH transcriptional regulatory region ranging from −300 to −200 position was prepared by PCR using the 500-bp size of TH transcriptional regulatory region as a template. The following primers were used.
Recognition sequences for restriction enzymes KpnI (for forward primer) and NheI (for reverse primer) were added to the terminal of the respective primers, for the purpose of facilitating incorporation of the PCR amplified fragment into the vector. The region of SEQ ID No: 3 was amplified by using Pyrobest DNA polymerase. The amplified DNA fragment was digested with restriction enzymes KpnI and NheI, and subjected to electrophoresis on agarose. The corresponding band was purified with a QIAQUICK Gel Extraction Kit, and incorporated into PGV-P2 vector previously digested with KpnI and NheI, to obtain a recombinant vector pSV40E100/Luc. The vector PGV-P2 used contains an SV40 early promoter as its promoter region.
In addition, the region of SEQ ID No: 5 (mouse TH gene core promoter region) was amplified by PCR using a forward primer: 5′-[…]-3′ (SEQ ID No: 27) and a reverse primer: 5′-[…]-3′ (SEQ ID No: 28), and using a region of approximately 500 by upstream of the TH gene as the template. […]

[2] = target: T1, aryl hydrocarbon receptor; experiment: Reporter gene assay in Neuro2a with pTHE60/Luc and pTHE60×3/Luc (SEQ ID No: 4); format: cell-based, SD-line rat; settings: 1 nM and 10 nM TCDD; pTHE60/Luc versus pTHE60×3/Luc
Experimental: In Example 9, the region of SEQ ID No: 4 was used as the TCDD-responsive region in the TH transcriptional regulatory region. The region of SEQ ID No: 4 was amplified by PCR using the region of SEQ ID No: 3 as a template and using the following primers: Forward primer: 5′-[…]-3′ (SEQ ID No: 29); and Reverse primer: 5′-[…]-3′ (SEQ ID No: 30). Pyrobest DNA polymerase was used in the PCR. Recognition sequences for restriction enzymes KpnI (for forward primer) and NheI (for reverse primer) were added to the terminal of the respective primers, for the purpose of facilitating incorporation of the PCR amplified fragment into the vector. The terminal of the region of SEQ ID No: 4 amplified by PCR was phosphorylated with 5′-polynucleotide kinase (Takara Bio Inc.), and then, the regions of SEQ ID No: 4 were ligated in tandem with each other by using a ligation kit. The ligated DNA fragments were digested with restriction enzymes KpnI and NheI, and subjected to agarose gel electrophoresis. DNA fragment consisting of a single copy of the region of SEQ ID No: 4 and DNA fragment consisting of three copies of the regions of SEQ ID No: 4 linked in tandem were excised from the gel based on their molecular weight, and purified with a QIAQUICK Gel Extraction Kit. […]

SMILES: Clc1cc2c(cc1Cl)Oc1cc(Cl)c(Cl)cc1O2 [TCDD, 2,3,7,8-tetrachlorodibenzo-p-dioxine]
- activity in response to test substance, TH gene core promoter versus SV40 early promoter [1]: higher activity in response to a test substance
- activity of the test substance on transcriptional regulation, by number of regions of SEQ ID No: 4 [2]: increased according to the increase in the number of the regions incorporated into the vector
